Reference: patent US4657911A, “3-amino quinuclidine derivatives and the application thereof as accelerators of gastro-intestinal motor function” (Delalande S.A., priority 1982, dated 1987)
Counter-ions that a name gives are not always drawn. Like-named read-outs stand apart in the source and are kept apart here.

How the values were obtained:
total transit = total transit test in rats; assay type: in vivo; details: Rattus norvegicus, po, read-out: % animals having completely evacuated the balls after 24 hours; for responders at 10 mg/kg: dose 10 mg/kg p.o.
Description: by the total transit test in rats, carried out according to the following method: The compounds of the invention were administered orally simultaneously with 20 steel balls to wakeful rats having eaten nothing for 20 hours. The fast was broken immediately after the administration and the compounds of the invention were administered a second time at the same dose after a period of 7 hours. The total transit was evaluated 24 hours after the first administration of the compounds to be tested by the percentage of the animals having evacuated all the balls in the faeces, the balls being counted by radiological examination.

[1] = acute toxicity in mice, method of MILLER and TAINTER; details: mouse, in vivo, ip
Description: In addition, the acute toxicity in mice was evaluated according to the method of MILLER and TAINTER described in Proc. Soc. Exp. Biol. Med. 57 261 (1944).

gastric evacuation = gastric evacuation test on rats; assay type: in vivo; details: rats fasted 20 hours, 20 steel balls
Description: by the gastric evacuation test on rats, carried out with the following method: The compounds of the invention are administered orally together with 20 steel balls to wakeful rats having eaten nothing for 20 hours. The action on the gastric evacuation of the tested compounds was evaluated 90 minutes after administration thereof by the percentage of animals whose stomach contained no balls, these balls being counted by radiological examination.

[2] = rats, dose 1 mg/kg p.o., second administration at same dose after 7 hours, 24 hours
[3] = rats, second administration at same dose after 7 hours, 24 hours

Row | Structure (SMILES) | responders at 1 mg/kg (total transit; [2]) | LD50 ([1]; Table III) | other results
1 | COc1cc(N)c(Cl)cc1C(=S)NC1CN2CCC1CC2 (stereo not shown) [compound 22] | 63% | 300 mg/kg | –
2 | O=C(NC1CN2CCC1CC2)c1ccccc1F (stereo not shown) [compound 6] | – | 150 mg/kg | responders at 10 mg/kg (total transit; [3]): 55%
3 | COc1cc(NC(C)=O)c(Cl)cc1C(=O)N(C)C1CN2CCC1CC2 (stereo not shown) [compound 23] | 38% | 50 mg/kg | –
4 | COc1ccc(F)cc1C(=O)NC1CN2CCC1CC2 (stereo not shown) [compound 17] | 57% | 140 mg/kg | –
5 | COc1ccccc1C(=O)NC1CN2CCC1CC2 (stereo not shown) [compound 7] | – | 150 mg/kg | responders at 10 mg/kg (total transit; [3]): 50%
6 | O=C(NC1CN2CCC1CC2)c1cccc(Cl)c1 (stereo not shown) [compound 20] | 50% | 145 mg/kg | –
7 | O=C(NC1CN2CCC1CC2)c1cccc(F)c1 (stereo not shown) [Code number 5, N-(3-quinuclidinyl)3-fluoro benzamide, oxalate] | – | – | % animals whose stomach contained no ball after 90 minutes (gastric evacuation; dose 2.5 mg/kg p.o.): 100%; LD50 ([1]; Table II): 140 mg/kg
8 | COc1nc(N)ncc1C(=O)NC1CN2CCC1CC2 (stereo not shown) [Code number 1] | – | 300 mg/kg | responders at 10 mg/kg (total transit; [3]): 50%
9 | COc1cccc(C(=O)NC2CN3CCC2CC3)c1 (stereo not shown) [Code number 3] | – | – | % animals whose stomach contained no ball after 90 minutes (gastric evacuation; dose 2.5 mg/kg p.o.): 100%; LD50 ([1]; Table II): 110 mg/kg
10 | COc1cc(N)c(Cl)cc1C(=O)N(C)C1CN2CCC1CC2 (stereo not shown) [compound 24] | 38% | 70 mg/kg | –
11 | COc1ccc(Br)cc1C(=O)NC1CN2CCC1CC2 (stereo not shown) [compound 18] | – | 160 mg/kg | responders at 1 mg/kg (total transit; 24 h): 38%
12 | COc1cc(N)c(Cl)cc1C(=O)NC1CN2CCC1CC2 (stereo not shown) [Code number 2, N-(3-quinuclidinyl)4-amino 5-chloro 2-methoxy benzamide, maleate] | 64% | – | % animals whose stomach contained no ball after 90 minutes (gastric evacuation; dose 5 mg/kg p.o.): 75%; % animals whose stomach contained no ball after 90 minutes (gastric evacuation; dose 10 mg/kg p.o.): 100%; LD50 ([1]; Table II): 105 mg/kg
13 | COc1cc(N)c(Cl)cc1C(=S)N(C)C1CN2CCC1CC2 (stereo not shown) [compound 25] | 44% | 80 mg/kg | –
